Experimental data from ChEMBL document CHEMBL5523747, “Discovery of a Series of Orally Bioavailable Androgen Receptor Degraders for the Treatment of Prostate Cancer” (J Med Chem, 2024).
Calls of active or inactive are those of the source. No cut-off for these calls is given here.

biological target: T1, Protein cereblon/Androgen receptor (Homo sapiens, UniProt P10275+Q96SW2); assay: PROTAC activity at AR/CRBN in human LNCaP cells assessed as protein degradation measured after 24 hrs incubation by imaging IF assay; type: cell-based; conditions: not given
Target sequence in this assay (P10275 whole entry): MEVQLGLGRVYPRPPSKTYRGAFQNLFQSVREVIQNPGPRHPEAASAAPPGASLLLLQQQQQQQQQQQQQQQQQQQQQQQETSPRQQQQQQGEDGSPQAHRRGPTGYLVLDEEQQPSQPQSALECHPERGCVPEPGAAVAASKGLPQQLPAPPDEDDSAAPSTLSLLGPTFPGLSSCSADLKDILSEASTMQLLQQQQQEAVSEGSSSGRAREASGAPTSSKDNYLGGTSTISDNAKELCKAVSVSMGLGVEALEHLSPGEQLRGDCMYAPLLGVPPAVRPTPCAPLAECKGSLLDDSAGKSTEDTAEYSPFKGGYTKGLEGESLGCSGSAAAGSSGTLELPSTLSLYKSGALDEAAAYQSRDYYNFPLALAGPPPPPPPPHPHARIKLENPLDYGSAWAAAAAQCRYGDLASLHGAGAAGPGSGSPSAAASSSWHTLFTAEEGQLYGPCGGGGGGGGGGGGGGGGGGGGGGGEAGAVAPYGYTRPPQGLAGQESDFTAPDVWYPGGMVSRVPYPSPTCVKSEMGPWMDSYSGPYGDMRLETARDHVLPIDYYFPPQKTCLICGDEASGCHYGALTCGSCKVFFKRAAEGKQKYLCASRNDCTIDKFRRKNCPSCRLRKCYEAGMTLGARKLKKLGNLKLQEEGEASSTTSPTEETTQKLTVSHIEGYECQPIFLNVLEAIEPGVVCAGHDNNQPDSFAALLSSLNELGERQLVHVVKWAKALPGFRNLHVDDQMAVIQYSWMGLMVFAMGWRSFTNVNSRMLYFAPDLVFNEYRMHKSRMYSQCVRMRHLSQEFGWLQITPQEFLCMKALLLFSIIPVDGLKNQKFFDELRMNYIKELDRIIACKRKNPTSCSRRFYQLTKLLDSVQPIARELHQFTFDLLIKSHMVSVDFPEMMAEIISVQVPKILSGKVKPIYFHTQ
Target sequence in this assay (Q96SW2 whole entry): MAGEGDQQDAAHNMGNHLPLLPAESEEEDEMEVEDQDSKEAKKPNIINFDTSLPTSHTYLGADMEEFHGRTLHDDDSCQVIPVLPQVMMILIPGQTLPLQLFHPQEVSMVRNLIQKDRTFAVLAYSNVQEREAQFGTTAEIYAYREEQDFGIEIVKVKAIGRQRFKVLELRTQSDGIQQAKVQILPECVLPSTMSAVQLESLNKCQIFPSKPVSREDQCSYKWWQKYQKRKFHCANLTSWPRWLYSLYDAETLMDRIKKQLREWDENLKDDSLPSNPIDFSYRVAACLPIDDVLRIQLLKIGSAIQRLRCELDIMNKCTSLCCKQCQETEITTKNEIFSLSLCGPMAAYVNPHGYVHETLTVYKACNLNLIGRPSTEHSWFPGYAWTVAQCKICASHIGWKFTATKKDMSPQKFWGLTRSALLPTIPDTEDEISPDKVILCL

Compound | DC50 [nM]
Cc1c(N2CCC(c3ccc(N4CCC(CN5CCN(c6ccc7c(c6)CN(C6CCC(=O)NC6=O)C7=O)CC5)CC4)cc3)CC2)ccc(C#N)c1C(F)(F)F (configuration not stated) | 152
COc1cc(N2CCN(CC3CCN(c4ccc(C5CCN(c6ccc(C#N)c(C(F)(F)F)c6F)CC5)cc4)CC3)CC2)cc2c1C(=O)N(C1CCC(=O)NC1=O)C2 (configuration not stated) | 22

biological target: T1, Protein cereblon/Androgen receptor; assay: PROTAC activity at AR/CRBN in human LNCaP cells assessed as maximal protein degradation measured after 24 hrs incubation by imaging IF assay relative to control; type: cell-based; conditions: not given
Target sequence in this assay (P10275 whole entry, looked up): as the sequence (P10275 whole entry) above
Target sequence in this assay (Q96SW2 whole entry, looked up): as the sequence (Q96SW2 whole entry) above

Compound | Emax [%]
Cc1c(N2CCC(c3ccc(N4CCC(CN5CCN(c6ccc7c(c6)CN(C6CCC(=O)NC6=O)C7=O)CC5)CC4)cc3)CC2)ccc(C#N)c1C(F)(F)F (configuration not stated) | 70
COc1cc(N2CCN(CC3CCN(c4ccc(C5CCN(c6ccc(C#N)c(C(F)(F)F)c6F)CC5)cc4)CC3)CC2)cc2c1C(=O)N(C1CCC(=O)NC1=O)C2 (configuration not stated) | 96

system: not listed separately; assay: Volume of distribution at steady state in CD-1 mouse at 1 mg/kg, po and 0.5 mg/kg, iv bolus; type: ADME, organism-based; conditions: in vivo

Compound | Vdss [L/kg]
COc1cc(N2CCN(CC3CCN(c4ccc(C5CCN(c6ccc(C#N)c(C(F)(F)F)c6F)CC5)cc4)CC3)CC2)cc2c1C(=O)N(C1CCC(=O)NC1=O)C2 (configuration not stated) | 1.5

system: not listed separately; assay: Half life in CD-1 mouse at 1 mg/kg, po and 0.5 mg/kg, iv bolus; type: ADME, organism-based; conditions: in vivo

Compound | half-life [h]
COc1cc(N2CCN(CC3CCN(c4ccc(C5CCN(c6ccc(C#N)c(C(F)(F)F)c6F)CC5)cc4)CC3)CC2)cc2c1C(=O)N(C1CCC(=O)NC1=O)C2 (configuration not stated) | 9

system: not listed separately; assay: Volume of distribution at steady state in Han Wistar rat at 1 mg/kg, po and 0.5 mg/kg, iv bolus; type: ADME, organism-based; conditions: in vivo

Compound | Vdss [L/kg]
COc1cc(N2CCN(CC3CCN(c4ccc(C5CCN(c6ccc(C#N)c(C(F)(F)F)c6F)CC5)cc4)CC3)CC2)cc2c1C(=O)N(C1CCC(=O)NC1=O)C2 (configuration not stated) | 9

system: not listed separately; assay: Half life in Han Wistar rat at 1 mg/kg, po and 0.5 mg/kg, iv bolus; type: ADME, organism-based; conditions: in vivo

Compound | half-life [h]
COc1cc(N2CCN(CC3CCN(c4ccc(C5CCN(c6ccc(C#N)c(C(F)(F)F)c6F)CC5)cc4)CC3)CC2)cc2c1C(=O)N(C1CCC(=O)NC1=O)C2 (configuration not stated) | 11

system: not listed separately; assay: Oral bioavailability in Han Wistar rat at 1 mg/kg; type: ADME, organism-based; conditions: in vivo

Compound | bioavailability [%]
COc1cc(N2CCN(CC3CCN(c4ccc(C5CCN(c6ccc(C#N)c(C(F)(F)F)c6F)CC5)cc4)CC3)CC2)cc2c1C(=O)N(C1CCC(=O)NC1=O)C2 (configuration not stated) | 29

system: not listed separately; assay: Volume of distribution at steady state in Beagle dog at 1 mg/kg, po and 0.5 mg/kg, iv infusion over 0.25 hrs; type: ADME, organism-based, Canis lupus familiaris; conditions: in vivo

Compound | Vdss [L/kg]
COc1cc(N2CCN(CC3CCN(c4ccc(C5CCN(c6ccc(C#N)c(C(F)(F)F)c6F)CC5)cc4)CC3)CC2)cc2c1C(=O)N(C1CCC(=O)NC1=O)C2 (configuration not stated) | 2.4

system: not listed separately; assay: Half life in Beagle dog at 1 mg/kg, po and 0.5 mg/kg, iv infusion over 0.25 hrs; type: ADME, organism-based, Canis lupus familiaris; conditions: in vivo

Compound | half-life [h]
COc1cc(N2CCN(CC3CCN(c4ccc(C5CCN(c6ccc(C#N)c(C(F)(F)F)c6F)CC5)cc4)CC3)CC2)cc2c1C(=O)N(C1CCC(=O)NC1=O)C2 (configuration not stated) | 12.5

system: not listed separately; assay: Oral bioavailability in Beagle dog at 1 mg/kg; type: ADME, organism-based, Canis lupus familiaris; conditions: in vivo

Compound | bioavailability [%]
COc1cc(N2CCN(CC3CCN(c4ccc(C5CCN(c6ccc(C#N)c(C(F)(F)F)c6F)CC5)cc4)CC3)CC2)cc2c1C(=O)N(C1CCC(=O)NC1=O)C2 (configuration not stated) | 18

biological target: Protein cereblon/Androgen receptor (Homo sapiens, UniProt P10275+Q96SW2, L702H); assay: PROTAC activity at CRBN/AR L702H mutant (unknown origin) expressed in human LNCaP cells assessed as protein degradation measured after 24 hrs incubation by imaging IF assay; type: cell-based; conditions: not given
Sequence (P10275 whole entry L702H, stated change not applied): as the sequence (P10275 whole entry) above, with L702H counted along it
Sequence (Q96SW2 whole entry, stated change not applied): as the sequence (Q96SW2 whole entry) above

Compound | DC50 [nM]
Cc1c(N2CCC(c3ccc(N4CCC(CN5CCN(c6ccc7c(c6)CN(C6CCC(=O)NC6=O)C7=O)CC5)CC4)cc3)CC2)ccc(C#N)c1C(F)(F)F (configuration not stated) | > 3000
COc1cc(N2CCN(CC3CCN(c4ccc(C5CCN(c6ccc(C#N)c(C(F)(F)F)c6F)CC5)cc4)CC3)CC2)cc2c1C(=O)N(C1CCC(=O)NC1=O)C2 (configuration not stated) | 92

system: Protein cereblon/Androgen receptor (Homo sapiens), P10275+Q96SW2 [L702H]; assay: PROTAC activity at CRBN/AR L702H mutant (unknown origin) expressed in human LNCaP cells assessed as maximal protein degradation measured after 24 hrs incubation by imaging IF assay relative to control; type: cell-based; conditions: not given

Compound | Emax [%]
COc1cc(N2CCN(CC3CCN(c4ccc(C5CCN(c6ccc(C#N)c(C(F)(F)F)c6F)CC5)cc4)CC3)CC2)cc2c1C(=O)N(C1CCC(=O)NC1=O)C2 (configuration not stated) | 74

system: not listed separately; assay: Volume of distribution at steady state in CD-1 mouse at 1 mg/kg, po and 0.5 mg/kg, iv; type: ADME, organism-based; conditions: in vivo

Compound | Vdss [L/kg]
COc1cc(N2CCN(CC3CCN(c4ccc(C5CCN(c6ccc(C#N)c(C(F)(F)F)c6F)CC5)cc4)CC3)CC2)cc2c1C(=O)N(C1CCC(=O)NC1=O)C2 (configuration not stated) | 1.5

system: not listed separately; assay: Half life in CD-1 mouse at 1 mg/kg, po and 0.5 mg/kg, iv; type: ADME, organism-based; conditions: in vivo

Compound | half-life [h]
COc1cc(N2CCN(CC3CCN(c4ccc(C5CCN(c6ccc(C#N)c(C(F)(F)F)c6F)CC5)cc4)CC3)CC2)cc2c1C(=O)N(C1CCC(=O)NC1=O)C2 (configuration not stated) | 9

system: not listed separately; assay: Oral bioavailability in CD-1 mouse at 1 mg/kg; type: ADME, organism-based; conditions: in vivo

Compound | bioavailability [%]
COc1cc(N2CCN(CC3CCN(c4ccc(C5CCN(c6ccc(C#N)c(C(F)(F)F)c6F)CC5)cc4)CC3)CC2)cc2c1C(=O)N(C1CCC(=O)NC1=O)C2 (configuration not stated) | 62

biological target: T1, Protein cereblon/Androgen receptor; assay: PROTAC activity at AR/CRBN in androgen-independent human LNCaP C4-2 cells assessed as protein degradation at 0.0001 to 10 uM measured after 24 hrs incubation by Western blot analysis; type: cell-based; conditions: dose 0.0001-10 µM
Target sequence in this assay (P10275 whole entry, looked up): as the sequence (P10275 whole entry) above
Target sequence in this assay (Q96SW2 whole entry, looked up): as the sequence (Q96SW2 whole entry) above

Compound | Activity
COc1cc(N2CCN(CC3CCN(c4ccc(C5CCN(c6ccc(C#N)c(C(F)(F)F)c6F)CC5)cc4)CC3)CC2)cc2c1C(=O)N(C1CCC(=O)NC1=O)C2 (configuration not stated) | Active

biological target: T1, Protein cereblon/Androgen receptor; assay: PROTAC activity at AR/CRBN in adrogen-sensitive human VCaP cells assessed as protein degradation at 0.0001 to 10 uM measured after 24 hrs incubation by Western blot analysis; type: cell-based; conditions: dose 0.0001-10 µM
Target sequence in this assay (P10275 whole entry, looked up): as the sequence (P10275 whole entry) above
Target sequence in this assay (Q96SW2 whole entry, looked up): as the sequence (Q96SW2 whole entry) above

Compound | Activity
COc1cc(N2CCN(CC3CCN(c4ccc(C5CCN(c6ccc(C#N)c(C(F)(F)F)c6F)CC5)cc4)CC3)CC2)cc2c1C(=O)N(C1CCC(=O)NC1=O)C2 (configuration not stated) | Active

system: LNCaP; assay: Effect on AR mRNA level in human LNCaP cells at 0.0001 to 10 uM measured after 24 hrs incubation by QRTPCR analysis; type: functional, cell-based; conditions: dose 0.0001-10 µM

Compound | Activity
COc1cc(N2CCN(CC3CCN(c4ccc(C5CCN(c6ccc(C#N)c(C(F)(F)F)c6F)CC5)cc4)CC3)CC2)cc2c1C(=O)N(C1CCC(=O)NC1=O)C2 (configuration not stated) | inactive

system: LNCaP; assay: Anti-proliferative activity against human LNCaP cells assessed as number of live cells measured after 7 days by Sytox Green Nucleic Acid stain assay; type: functional; conditions: 168 h, time 7 day

Compound | GI50 [nM]
COc1cc(N2CCN(CC3CCN(c4ccc(C5CCN(c6ccc(C#N)c(C(F)(F)F)c6F)CC5)cc4)CC3)CC2)cc2c1C(=O)N(C1CCC(=O)NC1=O)C2 (configuration not stated) | 74

biological target: T1, Protein cereblon/Androgen receptor; assay: PROTAC activity at AR/CRBN in human LNCaP cells assessed as protein degradation measured after 24 hrs incubation in presence of excess lenalidomide CRBN ligand by imaging IF assay; type: cell-based; conditions: not given
Target sequence in this assay (P10275 whole entry, looked up): as the sequence (P10275 whole entry) above
Target sequence in this assay (Q96SW2 whole entry, looked up): as the sequence (Q96SW2 whole entry) above

Compound | Activity
COc1cc(N2CCN(CC3CCN(c4ccc(C5CCN(c6ccc(C#N)c(C(F)(F)F)c6F)CC5)cc4)CC3)CC2)cc2c1C(=O)N(C1CCC(=O)NC1=O)C2 (configuration not stated) | inactive

biological target: T1, Protein cereblon/Androgen receptor; assay: PROTAC activity at AR/CRBN in human LNCaP cells assessed as protein degradation measured after 24 hrs incubation in presence of excess enzalutamide AR binder by imaging IF assay; type: cell-based; conditions: not given
Target sequence in this assay (P10275 whole entry, looked up): as the sequence (P10275 whole entry) above
Target sequence in this assay (Q96SW2 whole entry, looked up): as the sequence (Q96SW2 whole entry) above

Compound | Activity
COc1cc(N2CCN(CC3CCN(c4ccc(C5CCN(c6ccc(C#N)c(C(F)(F)F)c6F)CC5)cc4)CC3)CC2)cc2c1C(=O)N(C1CCC(=O)NC1=O)C2 (configuration not stated) | inactive

system: LNCaP C4-2; assay: In vivo degradation of AR in human LNCaP C4-2 cells xenografted in mouse model assessed as degradation at 30 mg/kg, po once daily measured after 10 days relative to control; type: functional; conditions: time 10 day

Compound | Activity [%]
COc1cc(N2CCN(CC3CCN(c4ccc(C5CCN(c6ccc(C#N)c(C(F)(F)F)c6F)CC5)cc4)CC3)CC2)cc2c1C(=O)N(C1CCC(=O)NC1=O)C2 (configuration not stated) | >90

system: not listed separately; assay: Total plasma concentration in mouse xenografted with human LNCaP C4-2 cells at 30 mg/kg, po once daily measured after 10 days; type: ADME, organism-based; conditions: time 10 day, read-out: Cp(T)

Compound | concentration at 240 h [µM]
COc1cc(N2CCN(CC3CCN(c4ccc(C5CCN(c6ccc(C#N)c(C(F)(F)F)c6F)CC5)cc4)CC3)CC2)cc2c1C(=O)N(C1CCC(=O)NC1=O)C2 (configuration not stated) | ~20

system: LNCaP C4-2; assay: In vivo antitumor activity in human LNCaP C4-2 cells xenografted in mouse model assessed as tumor growth inhibition at 30 mg/kg, po once daily measured after 28 days relative to control; type: functional; conditions: LNCaP C4-2, 672 h, time 28 day, read-out: TGI

Compound | inhibition in vivo at 30 mg/kg [%]
COc1cc(N2CCN(CC3CCN(c4ccc(C5CCN(c6ccc(C#N)c(C(F)(F)F)c6F)CC5)cc4)CC3)CC2)cc2c1C(=O)N(C1CCC(=O)NC1=O)C2 (configuration not stated) | 70
